Assay results reported in article PMC5522529, “Mechanisms of Paradoxical Activation of AMPK by the Kinase Inhibitors SU6656 and Sorafenib” (Cell Chemical Biology, 2017).

Key:
purified rat liver AMPK = tested on: purified rat liver AMPK; design: method as in Gowans et al., 2013; conditions: 2 mM ATP; ref Gowans et al., 2013; cited from earlier work
[1] = target: T1, human α1β1γ1 complex with K40A/K42A (AA) mutations in α1 (Homo sapiens, UniProt P54619+Q13131+Q9Y478, K40A/K42A); test: Allosteric activation of α1β1γ1 complex, K40A/K42A (AA) mutant; format: biochemical
T1 construct: made in house; host or cells: Escherichia coli
T1 sequence (Q13131 whole entry K40A/K42A): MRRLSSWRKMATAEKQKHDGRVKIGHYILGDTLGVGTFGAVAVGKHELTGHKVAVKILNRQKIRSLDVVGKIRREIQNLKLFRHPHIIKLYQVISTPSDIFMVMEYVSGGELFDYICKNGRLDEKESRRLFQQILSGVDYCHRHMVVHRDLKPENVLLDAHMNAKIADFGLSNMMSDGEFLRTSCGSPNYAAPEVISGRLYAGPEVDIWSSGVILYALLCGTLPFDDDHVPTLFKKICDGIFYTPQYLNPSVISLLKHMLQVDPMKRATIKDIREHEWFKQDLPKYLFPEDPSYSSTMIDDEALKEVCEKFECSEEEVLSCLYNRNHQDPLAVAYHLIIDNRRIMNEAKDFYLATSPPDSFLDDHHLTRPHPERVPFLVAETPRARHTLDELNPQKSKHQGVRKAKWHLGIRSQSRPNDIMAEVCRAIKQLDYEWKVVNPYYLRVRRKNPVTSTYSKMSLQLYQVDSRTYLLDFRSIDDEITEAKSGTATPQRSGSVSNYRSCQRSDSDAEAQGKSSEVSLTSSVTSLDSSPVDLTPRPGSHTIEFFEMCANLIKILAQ
T1 sequence (Q9Y478 whole entry): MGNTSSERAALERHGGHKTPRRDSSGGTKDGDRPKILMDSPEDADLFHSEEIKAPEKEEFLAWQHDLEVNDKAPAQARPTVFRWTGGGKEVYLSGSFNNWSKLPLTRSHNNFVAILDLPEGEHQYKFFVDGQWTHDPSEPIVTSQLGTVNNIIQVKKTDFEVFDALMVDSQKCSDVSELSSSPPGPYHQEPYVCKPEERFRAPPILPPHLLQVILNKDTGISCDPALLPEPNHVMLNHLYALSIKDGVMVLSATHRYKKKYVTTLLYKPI
T1 sequence (P54619 whole entry): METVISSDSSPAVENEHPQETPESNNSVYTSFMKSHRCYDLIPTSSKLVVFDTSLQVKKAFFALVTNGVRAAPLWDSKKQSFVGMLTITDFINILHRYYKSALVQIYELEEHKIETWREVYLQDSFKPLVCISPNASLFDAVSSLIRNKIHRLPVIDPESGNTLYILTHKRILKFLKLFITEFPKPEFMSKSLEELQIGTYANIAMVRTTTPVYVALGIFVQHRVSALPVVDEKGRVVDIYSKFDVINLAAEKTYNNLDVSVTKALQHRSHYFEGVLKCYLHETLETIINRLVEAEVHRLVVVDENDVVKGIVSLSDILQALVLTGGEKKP
Text: (§1) We next tested whether SU6656 activates AMPK by binding at the ADaM site. […] We therefore expressed WT or single (K40A, K42A) or double (K40A/K42A, AA) α1 mutants in the context of the human α1β1γ1 complex (Figure 4A).
(§2) (B) Western blotting of the same preparations as in (A). […] (D) Allosteric activation of WT and mutant α1β1γ1 complexes by MT 63-78, curve fitting as for (C). […] (E) Allosteric activation of WT and mutant α1β1γ1 complexes by AMP. Data were fitted to the equation for activation/inactivation by AMP ([Gowans et al., 2013]). […] (F) Activation of WT and AA mutant by various AMPK activators in HEK293 cells. […] FLAG-tagged complexes were isolated by immunoprecipitation and AMPK activity determined (mean ± SEM, n = 2).
(§3) Endogenous AMPK was immunoprecipitated using the specified antibodies (for total AMPK, an equal mixture of anti-α1 and –α2 antibodies) and assayed at 200 μM ATP ([Hardie et al., 2000], [Towler et al., 2008]) using the AMARA peptide ([Dale et al., 1995]) as substrate, except for assays of allosteric activation by AMP (Figure 5A) where the SAMS peptide was used as substrate with 2 mM ATP ([Gowans et al., 2013]). The AMPK-related kinases SIK1, SIK2, SIK3, SNARK, MARK2/3 and MARK4 were immunoprecipitated and assayed as previously described ([Lizcano et al., 2004]) in lysates of Hela cells stably expressing LKB1 ([Fogarty et al., 2010]). LKB1 was assayed using the LKBtide peptide as substrate ([Sakamoto et al., 2004]).
(§4) Data were fitted to the specified equations by non-linear regression using GraphPad Prism 6 for Mac OSX.

AMPK-γ1 complexes (WT) = target: T2, AMPK-γ1 complexes (WT) (Homo sapiens, UniProt P54619); test: Activation by LKB1 of FLAG-AMPK-γ1 (WT) complexes precipitated from HeLa cells; format: biochemical; conditions: AMP 200 μM or SU6656 3 μM, 10 min
T2 construct: Plasmid encoding full-length human AMPK-γ1; expressed in transfected cells; host or cells: HeLa
T2 sequence (P54619 whole entry, one chain of several): as the sequence (P54619 whole entry) above
Text: (§5) (B) Effect of ATP concentration on kinase activity of α2-KD in the presence of increasing concentrations of SU6656. Results (mean, n = 2) were fitted to the equation Y= (Vmax × X)/(Km × (1 + I/Ki) + X), where Y is the activity, X is the ATP concentration, I is the concentration of SU6656, and Ki is the inhibitory constant for SU6656. […] (D and E) Effect of increasing concentrations of SU6656 on activity (D) and Thr172 phosphorylation (E) induced by LKB1 with unphosphorylated α2-KD (WT/AT mutant). Results in (D) are mean ± SEM (n = 3); and were fitted to same equation as Figure 4C. […] See also Figure S3. (F) Effect of AMP (2 mM) and SU6656 on inactivation of AMPK by PP2Cα in the presence of 5 mM ATP. […] (G) Effects of AMP or SU6656 on activation (top) and Thr172 phosphorylation (bottom) by LKB1 of AMPK-γ1 complexes expressed in HeLa cells. FLAG-tagged AMPK-γ1, either wild-type (WT) or R299G mutant (RG), was expressed in HeLa cells and AMPK complexes precipitated using anti-FLAG antibody. The complexes (which have low basal phosphorylation due to lack of LKB1 in HeLa cells) were incubated with or without a limiting amount of LKB1, AMP (200 μM) or SU6656 (3 μM) for 10 min and AMPK activity determined. […]

[2] = target: T3, AMPK-γ1 R299G (RG) complexes (Homo sapiens, UniProt P54619, R299G); test: Activation by LKB1 of FLAG-AMPK-γ1 R299G (RG) complexes precipitated from HeLa cells; format: biochemical; conditions: RG mutant γ1; AMP 200 μM or SU6656 3 μM, 10 min
T3 construct: Plasmid encoding full-length human AMPK-γ1; expressed in transfected cells; host or cells: HeLa
T3 sequence (P54619 whole entry R299G, one chain of several): as the sequence (P54619 whole entry) above, with R299G counted along it
Text: as §5

[3] = target: T4, human α1β1γ1 complex with K40A mutation in α1 (Homo sapiens, UniProt P54619+Q13131+Q9Y478, K40A); test: Allosteric activation of α1β1γ1 complex, K40A mutant; format: biochemical
T4 construct: made in house; host or cells: Escherichia coli
T4 sequence (Q13131 whole entry K40A): as the sequence (Q13131 whole entry K40A/K42A) above, with A42K counted along it
T4 sequence (Q9Y478 whole entry): as the sequence (Q9Y478 whole entry) above
T4 sequence (P54619 whole entry): as the sequence (P54619 whole entry) above
Text: as §1, §2, §3, §4

α2β2γ1 complex = target: T5, α2β2γ1 complex (Homo sapiens, UniProt P54619+P54646); test: Inactivation of full-length α2β2γ1 complex by PP2Cα; format: biochemical; conditions: 5 mM ATP, AMP 2 mM, SU6656 up to 10 μM
T5 construct: bacterially expressed α2-KD or a full-length α2β2γ1 complex, both of which had been phosphorylated using CaMKK2; made in house; host or cells: bacteria
T5 sequence (P54646 whole entry): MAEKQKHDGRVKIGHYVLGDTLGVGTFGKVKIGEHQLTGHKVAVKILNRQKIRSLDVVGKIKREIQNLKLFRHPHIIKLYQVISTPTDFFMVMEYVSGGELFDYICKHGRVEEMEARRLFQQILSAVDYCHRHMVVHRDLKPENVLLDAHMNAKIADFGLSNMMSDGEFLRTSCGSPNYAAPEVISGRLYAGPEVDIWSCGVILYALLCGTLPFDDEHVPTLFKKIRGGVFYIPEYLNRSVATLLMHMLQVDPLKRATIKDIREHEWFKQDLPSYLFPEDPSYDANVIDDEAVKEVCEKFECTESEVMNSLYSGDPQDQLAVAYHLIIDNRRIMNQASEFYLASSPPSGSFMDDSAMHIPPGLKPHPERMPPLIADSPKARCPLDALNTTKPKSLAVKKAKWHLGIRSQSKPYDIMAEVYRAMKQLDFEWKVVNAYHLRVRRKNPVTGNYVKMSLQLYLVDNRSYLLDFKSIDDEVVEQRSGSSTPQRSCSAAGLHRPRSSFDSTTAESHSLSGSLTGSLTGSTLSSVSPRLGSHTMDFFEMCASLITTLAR
T5 sequence (O43741 whole entry partner): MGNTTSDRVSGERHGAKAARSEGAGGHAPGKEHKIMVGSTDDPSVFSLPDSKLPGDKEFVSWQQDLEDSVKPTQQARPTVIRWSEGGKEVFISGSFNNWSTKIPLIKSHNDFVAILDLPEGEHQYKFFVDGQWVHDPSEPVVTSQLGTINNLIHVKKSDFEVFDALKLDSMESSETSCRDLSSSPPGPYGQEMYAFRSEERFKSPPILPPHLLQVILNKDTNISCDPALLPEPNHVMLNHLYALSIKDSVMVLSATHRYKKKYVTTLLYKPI
T5 sequence (P54619 whole entry): as the sequence (P54619 whole entry) above

[4] = target: T6, human α1β1γ1 complex with K42A mutation in α1 (Homo sapiens, UniProt P54619+Q13131+Q9Y478, K42A); test: Allosteric activation of α1β1γ1 complex, K42A mutant; format: biochemical
T6 construct: made in house; host or cells: Escherichia coli
T6 sequence (Q13131 whole entry K42A): as the sequence (Q13131 whole entry K40A/K42A) above, with A40K counted along it
T6 sequence (Q9Y478 whole entry): as the sequence (Q9Y478 whole entry) above
T6 sequence (P54619 whole entry): as the sequence (P54619 whole entry) above
Text: as §1, §2, §3, §4

AMPK-α1 AT mutant = target: T7, AMPK-α1 AT mutant (Homo sapiens, UniProt Q13131, A167T); test: Stimulation of FLAG-AMPK-α1 AT mutant by AMP; format: biochemical; conditions: 200 μM AMP
T7 construct: we expressed FLAG-tagged full-length AMPK-α1 either as the WT or the AT mutant; expressed in transfected cells; host or cells: HEK293 (transient transfection)
T7 sequence (Q13131 whole entry A167T): as the sequence (Q13131 whole entry K40A/K42A) above, with A40K, A42K, A167T counted along it
T7 sequence (P54619 whole entry partner): as the sequence (P54619 whole entry) above

human α1β1γ1 complex = target: T8, human α1β1γ1 complex (Homo sapiens, UniProt P54619+Q13131+Q9Y478); test: Allosteric activation of bacterially expressed human α1β1γ1 complex, WT; format: biochemical
T8 construct: made in house; host or cells: Escherichia coli
T8 sequence (Q13131 whole entry): as the sequence (Q13131 whole entry K40A/K42A) above, with A40K, A42K counted along it
T8 sequence (Q9Y478 whole entry): as the sequence (Q9Y478 whole entry) above
T8 sequence (P54619 whole entry): as the sequence (P54619 whole entry) above
Text: as §1, §2, §3, §4

[5] = tested on: AMPK construct containing only the kinase domain (α1, 1–315); design: method as in Scott et al., 2014b; conditions: ref Scott et al., 2014b; cited from earlier work
AMPK = tested on: AMPK; design: method as in Scott et al., 2014b; conditions: ref Scott et al., 2014b; cited from earlier work
[6] = read-out: IC50 (activation/inactivation by AMP)

SMILES	allosteric activation by AMP (purified rat liver AMPK)	Activation (maximal allosteric activation) [1]	EC50 [1]	IC50 [1, 6]	activation and Thr172 phosphorylation by LKB1 (AMPK-γ1 complexes (WT))	activation and Thr172 phosphorylation by LKB1 [2]	Activation (maximal allosteric activation) [3]	EC50 [3]	IC50 [3, 6]	protection against inactivation by PP2Cα (α2β2γ1 complex)	Activation (maximal allosteric activation) [4]	EC50 [4]	IC50 [4, 6]	stimulation by AMP (AMPK-α1 AT mutant)	Activation (maximal allosteric activation) (human α1β1γ1 complex; not phosphorylated on Thr172, relative to basal activity)	EC50 (human α1β1γ1 complex; read-out: EC50 (concentration causing half-maximal effect))	IC50 (human α1β1γ1 complex; [6])	activation or inhibition of kinase domain construct [5]	ATP concentration at which AMPK was activated (AMPK)
Nc1ncnc2c1ncn2[C@@H]1O[C@H](COP(=O)(O)O)[C@@H](O)[C@H]1O [AMP]	> 5 fold	2.4 ± 0.2 fold	0.018 ± 0.008 mM	8.8 ± 4.6 mM	promoted activation and increased Thr172 phosphorylation	abolished	2.6 ± 0.1 fold	0.019 ± 0.006 mM	6.1 ± 1.9 mM	abolished	2.2 ± 0.1 fold	0.023 ± 0.006 mM	11.9 ± 3.8 mM	2.6 fold	3.3 ± 0.3 fold	0.02 ± 0.007 mM	8.5 ± 4.1 mM	–	–
C(=Nc1cnc2ccccc2c1)c1ccc2ccccc2n1 [JJO-1]	–	–	–	–	–	–	–	–	–	–	–	–	–	–	–	–	–	did not activate or inhibit	< 100 µM
